The results in this text go back to patent US20230181555A1, “STABLE AND PRESERVED PHARMACEUTICAL COMPOSITIONS OF BILASTINE” (priority 2019, published 2023).

A short description of data set [1]: Solubility of bilastine in water. As to conditions: pH-dependent. The data set is classed as physicochemical.
A short description of data set [2]: Solubility of bilastine and mometasone furoate in formulations with HPBCD. The data set is classed as physicochemical. As to conditions: HPBCD 75 mg/mL (7.5 wt %); FIG. 1B. The procedure: Six different formulations (with mometasone furoate monohydrate and the rest of excipients as defined in example 7) were prepared (see table below). The six formulations had amounts of HPBCD from 12.5 to 100 mg/mL. Then, in each of them an excessive amount of bilastine was added and the maximum solubility was tested. Furthermore, the percentage of the mometasone furoate dissolved was also tested. All the measurements were conducted at time 0.

Structures are written as SMILES.

For `CCOCCn1c(C2CCN(CCc3ccc(C(C)(C)C(=O)O)cc3)CC2)nc2ccccc21` [Bilastine, 2-[4-(2-{4-[1-(2-ethoxyethyl)-1H-benzimidazol-2-yl]-1-piperidinyl}ethyl)phenyl]-2-methylpropanoic acid], the solubility in water entry in data set [1] is “only slightly soluble”.
For `C[C@@H]1C[C@H]2[C@@H]3CCC4=CC(=O)C=C[C@]4(C)[C@@]3(Cl)[C@@H](O)C[C@]2(C)[C@@]1(OC(=O)c1ccco1)C(=O)CCl.O` [Mometasone Furoate monohydrate, Mometasone furoate monohydrate], in data set [2], the “solubility of mometasone furoate” value is listed as “around 4 mg/mL”.
